Where two headings read alike, the source gives them in different places.
Tests used:
[1] = tested on: MCF-7 breast carcinoma; experiment: Cytotoxicity assay (soft agar), MCF-7; conditions: Homo sapiens
[2] = Cytotoxicity assay (soft agar), MCF-7; conditions: human
[3] = tested on: HT-29 colorectal carcinoma; experiment: Cytotoxicity assay (soft agar), HT-29; conditions: Homo sapiens
[4] = Cytotoxicity assay (soft agar), HT-29; conditions: human
[5] = tested on: Normal human foreskin fibroblasts (HFF); experiment: Cytotoxicity assay (monolayer), HFF; assay type: cell-based; conditions: Fibroblast
Procedure: Statistical Assoc., 81, 991-999, 1986.
Monolayer assays with tumor cell lines (MCF-7 breast carcinoma and HT-29 colorectal carcinoma from ATCC) were carried out in triplicate in 96-well plates with RPMI1640 medium containing 5% fetal bovine serum, 100 U/ml penicillin and 100 μg/ml streptomycin. Normal human foreskin fibroblasts (HFF #CC-2509) were from Cambrex and were cultured in FGM-2 medium. Exponentially growing cells (5,000 MCF-7 or HT-29; 1,500 HFF) were plated in 100 μl medium and incubated overnight (5% CO2, 37° C.). Compounds (20 pM to 20 μM final concentration, 6-8 doses) and vehicle (DMSO) controls were added and the incubation was continued for an additional 72 hours. Final cell density was determined by incubating cultures with 25 μl AlamarBlue reagent (BioSource, Camarillo, Calif.) for 4 hours, followed by determination of fluorescence at excitation of 544 nm and emission of 590 nm with a SpectroMax Gemini EM fluorescence plate reader (Molecular Devices, Sunnyvale, Calif.). EC50 values were generated from dose-response curves by a 4-parameter method using Softmax PRO software. Mean EC50s (±SD) represent the average of all tests carried out for all lots of a given compound. […] Statistical Assoc., 81, 991-999 (1986).

[6] = tested on: HUVEC; experiment: Cytotoxicity assay (monolayer), HUVEC; assay type: cell-based; conditions: Homo sapiens, read-out: HUVEC (EC50 Ave) ML
[7] = tested on: MCF7; experiment: Cytotoxicity assay, MCF7 SSA (SSA not explained); assay type: cell-based; conditions: Homo sapiens
[8] = tested on: tubulin; experiment: Fluorescence-based microtubule polymerization assay (MPA); assay type: biochemical; conditions: mean percentage of paclitaxel or vinblastine activity; 0.75-10 micromolar
Summary of the method: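 Tubulin polymerization was followed by fluorescence (ex 360/em 405 nm) in a commercial kit with 1 mg/ml BSA added to every assay, glycerol being omitted for paclitaxel conjugates. Parent drugs and conjugates were tested at 0.75, 1.5, 3 and 10 micromolar final. Curves from the linear range of the dose responses were compared.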

## CC(=O)O[C@H]1C(=O)[C@@]2(C)[C@H]([C@H](OC(=O)c3ccccc3)[C@]3(O)C[C@H](OC(=O)[C@H](O)[C@@H](NC(=O)c4ccccc4)c4ccccc4)C(C)=C1C3(C)C)[C@]1(OC(C)=O)CO[C@@H]1C[C@@H]2O [Paclitaxel]
[1]; MCF7, read-out: MCF7 (EC50 Ave) SA
  EC50: < 100 nM
[1]; MCF7, read-out: MCF-7 Soft Agar EC50
  EC50: 6 ± 3 nM
[2]
  selectivity ratio: 1.4
[3]; HT-29, read-out: HT29 (EC50 Ave) SA
  EC50: < 100 nM
[3]; HT-29, read-out: HT-29 Soft Agar EC50
  EC50: 15 ± 2 nM
[4]
  selectivity ratio: 0.6
[5]; mean ± SD, read-out: HFF Monolayer EC50
  EC50: 9 ± 5 nM
[5]; monolayer, 72 hours, AlamarBlue, read-out: HFF (EC50 Ave) ML
  EC50: < 100 nM
[6]
  EC50: < 100 nM
[7]
  EC50: < 100 nM
[8]
  Ave. MPA Act: C (C>100)
